For assay [1], the system named is E-cadherin. Nature of the assay: E-cadherin cleavage in staurosporine-treated (apoptotic) A431 cells (Western blot). Type of assay: cell-based, human. As for the experimental part:
Cell Cultures and transfections. Cells were grown in Dulbecco's Modified Eagle Medium (DMEM) plus 10% fetal bovine serum, penicillin and streptomycin in 5% CO2 at 37° C. […] A431 cells were from American Type Culture Collection. […] A431D cells stably transfected with wild-type or GGG759-761AAA mutant E-cadherin were provided by Dr. A. B. Reynolds.
(§1) Immunoprecipitations (IPs), immunoblotting, immunofluorescence and confocal microscopy. For WB analysis of cell extracts, cells were washed with PBS and then solubilized in RIPA buffer. For IPs cells were solubilized in Hepes buffer (25 mM Hepes [pH 7.4], 150 mM NaCl, 1× Complete protease inhibitor cocktail, Roche) containing 1% digitonin (IPs with I-R222 and PI-R222 antibodies) or 1% Triton X-100 (IPs with β-catenin and desmoglein antibodies). Following centrifugation at 17,000×g for 10 min, supernatants (1 mg protein) were pre-cleared with protein A- or protein G-agarose (Pierce) for 2 hours. Supernatants were then incubated with antibodies overnight at 4° C. and treated for 2 hours with protein A-agarose (polyclonal antibodies) or with protein G-agarose (monoclonal antibodies). IPs were washed with Hepes buffer containing either 1% digitonin or 1% Triton X-100 and analyzed by SDS-PAGE. Immunofluorescence and confocal microscopy was performed as described by Georgakopoulos et al., (1999). Briefly, cells were plated on 22×22 mm collagen-coated glass coverslips, fixed in cold methanol for 10 min at −20° C. Following washing in TBS (25 mM Tris-HCl [pH 7.4], 150 mM NaCl), cells were treated with 10% goat serum in SuperBlock (Pierce) for 1 hour, incubated overnight with primary antibody (1:100), washed in TBS and then were incubated with species specific Alexa Fluor™ secondary antibody conjugates (Molecular Probes). Cells were washed with TBS, mounted with Prolong antifade kit (Molecular Probes), and photographed on a Leica confocal laser scanning microscope.
Conditional media (20 μl) from A431 cells cultured in the absence or presence of […] and treated with SDS as above were probed on Western blots with anti-E-cadherin ectodomain antibody H108.

Assay [2] concerns N-cadherin. The assay can be described thus: N-cadherin processing in fibroblast cultures (Western blot, C32). It is filed as cell-based, mouse. To be noted: GM6001, FIG. 7B lanes 5 and 6. The procedure:
Extracts from PS1+/+ or PS1−/− mouse embryos were probed on WBs with either anti-cytoplasmic N-cadherin antibody (FIG. 7A, upper panel) or anti-PS I/CTF antibody 33B10 (FIG. 7A, lower panel). Extracts from PS1+/+ or PS1−/− fibroblast cultures were incubated for 16 hours in the absence or presence of DMSO, L-685,458 (0.5 μM) and probed on WBs with either C32 or 33B10 antibodies.

Assay [3] deals with N-cadherin. The assay can be described thus: N-Cad/CTF2 production in rat primary neuronal cultures after stimulation. It is filed as cell-based. To be noted: for N-Cad/CTF2 production on stimulation: 15 minutes stimulation with KCl (50 (unit uncertain)), L-Glutamate (50 (unit uncertain)) or NMDA (50 (unit uncertain)). On the set-up: N-Cad/CTF2 production on stimulation / K+-induced increase in N-Cad/CTF2 / L-glutamate-induced increase in N-Cad/CTF2: unit of the concentration uncertain. As for the experimental part: Primary, neuronal cultures. Mixed hippocampal and cortical neuronal cultures were prepared from E18 mouse or rat brains as described by Banker and Goslin (1991) Culturing Nerves Cells, London, MIT Press. Neurons were maintained 10 days in vitro in glial conditioned MEM containing 2% glucose and N2 supplements as described by Bottenstein and Sato (1979) Proc. Natl. Acad. Sci. USA 76: 514-517, and then were stimulated for 15 minutes with Mg2+-free Hanks' balanced salt solution (HBSS, Sigma) containing KCl (50 mM), L-Glutamate ([…]) or NMDA ([…]). D-APV ([…]) was applied 15 minutes before stimulation.
In vitro γ-secretase-like ε-cleavage assay. Cells were washed in PBS, resuspended in 1 ml of 4° C. hypotonic buffer (10 mM MOPS, pH 7.0, 10 mM KCl) and homogenized on ice. A post-nuclear supernatant was prepared by centrifugation at 1000×g for 15 minutes at 4° C. Crude membranes were isolated from the post-nuclear supernatant by centrifugation at 16,000×g for 40 minutes at 4° C. The membranes were then resuspended in […] of assay buffer (150 mM sodium citrate, pH 6.4, 1× Complete protease inhibitor cocktail), and incubated at 37° C. for 2 hours. Samples were either analyzed directly by WB or separated into pellet (P100) and supernatant (S100) fractions by ultracentrifugation for 1 hour at 100,000×g at 4° C. The S100 and P100 fractions were then analyzed by WB.
Rat brain neurons were pre-incubated in the absence (−) or presence (+) of D-APV and then stimulated with either KCl, L-glutamate (L-gly) or NMDA. Membranes from these neurons were used in in vitro assays for production of N-Cad/CTF2.

In assay [4] the test system is E-cadherin. Nature of the assay: Ionomycin treatment of A431D cells transfected with WT or GGG759-761AAA mutant E-cadherin. Type of assay: cell-based. To be noted: ionomycin 45 minutes. The procedure: Cell Cultures and transfections. Cells were grown in Dulbecco's Modified Eagle Medium (DMEM) plus 10% fetal bovine serum, penicillin and streptomycin in 5% CO2 at 37° C. Fibroblast cell lines derived either from wild-type (WT) (PS1+/+) or PS1 knock-out (PS1−/−) mice were stably transfected with human E-cadherin as described by Baki et al., (2001). A431 cells were from American Type Culture Collection. Stable transfectants of PS1 cDNA in HEK293 cells were prepared as described by Georgakopoulos et al., (1999). A431D cells stably transfected with wild-type or GGG759-761AAA mutant E-cadherin were provided by Dr. A. B. Reynolds.
A431D cells stably transfected with WT E-cadherin or with the E-cadherin mutant were incubated in the absence or presence of ionomycin for 45 minutes and RIPA extracts were probed on Western blots with C36 antibody. Cytosolic fractions were probed with antibodies against E-cadherin (C36), β-catenin or α-catenin. […] Furthermore, no soluble E-Cad/CTF2 was detected in mutant transfectants either in the presence or absence of ionomycin. Thus, PS1 binding to E-cadherin is required for the PS1/γ-secretase cleavage of E-cadherin and for the release of E-Cad/CTF2, β-catenin and α-catenin to the soluble cytosol.

The subject of assay [5] is A431 cells. The assay can be described thus: Laser scanning confocal microscopy of ionomycin-induced cell-cell dissociation. Type of assay: cell-based, human. To be noted: ionomycin 45 minutes. As for the experimental part: as §1
The PS1/γ-secretase role in the disassembly of CAJ was further examined using laser scanning confocal microscopy (LSCM). A431 cells were pre-incubated for 30 minutes in the absence or presence of L-685,458 and then treated for 45 minutes with ionomycin. Following the ionomycin-induced cell-cell dissociation, the distribution of PS1, E-cadherin, β-catenin and α-catenin was analyzed by LSCM using the constant detector setting. […]

Assay [6] deals with E-cadherin/catenin cytoskeletal complex. The assay can be described thus: Ionomycin-induced CAJ disassembly in A431 cells, subcellular fractionation and Western blot. Type of assay: cell-based, human. Particulars: ionomycin 10 μM, absence of inhibitor. As for the experimental part:
Subcellular fractionation. Confluent A431 cells (one 100 mm dish) were rinsed and scraped with 4° C. phosphate-buffered saline (PBS). Cells were then placed into 1 ml of buffer A (20 mM Tris-HCl [pH 7.5], 0.25 M sucrose, 10 mM EGTA, 2 mM EDTA, 1× Complete protease inhibitor cocktail, Roche), passed through a 27 gauge needle 10 times, and the obtained cell lysate was centrifuged at 500×g for 10 min at 4° C. The supernatant was then centrifuged at 120,000×g for 45 min at 4° C. to separate the cytosolic and crude membrane fractions. The pellet (crude membrane fraction) was washed twice with buffer A and resuspended by sonication in […] of buffer A containing 1% Triton X-100. The suspension was incubated at 4° C. for 30 min and then centrifuged at 120,000×g for 45 min at 4° C. to separate the membrane and Triton X-100-insoluble fractions. The pellet (Triton X-100-insoluble fraction) was washed twice with buffer A and solubilized by sonication in RIPA buffer. […] of proteins from the different fraction were analyzed by SDS-PAGE.
In stable cell-cell adhesion, the E-cadherin/β-catenin complex of the CAJ is anchored to the actin cytoskeleton via catenin and this association is manifested by the insolubility of the complex components in Triton X-100 (Baki et al., (2001)). Induction of apoptosis or calcium influx disrupts cadherin-mediated cell-cell adhesion by cleaving cadherin and disassembling the CAJ complexes. To determine whether the γ-secretase cleavage of E-cadherin is involved in the CAJ disassembly, calcium influx was induced with ionomycin (10 μM) in A431 cells preincubated for 30 minutes in the absence or presence of the γ-secretase inhibitor L-685,458. Cell extracts were fractionated, and analyzed on Western blots with antibodies against cytoplasmic E-cadherin C36 or β- and α-catenins. […] In addition, L-685,458 delayed the ionomycin-induced decrease of cytoskeletal β-catenin and α-catenin and inhibited their release to the soluble cytosol.

Assay [7] has as its system Aβ40 and Aβ42. Nature of the assay: Secreted Aβ ELISA in CHO cells expressing Swedish APP mutant. It is filed as cell-based. Particulars: transient transfection, vs vector cDNA, FIG. 4B. The procedure: CHO cells expressing Swedish APP mutant were transiently transfected with vector cDNA (vector), full length E-cadherin (E-cadherin), a cDNA construct encoding the transmembrane and ectodomain sequence of E-cadherin (EC0) or a cDNA expressing the entire cytoplasmic sequence of E-cadherin (CTF2). Secreted Aβ40 and Aβ42 were determined by ELISA. Each value is a mean±SD from three assays each performed in duplicate. […] Expression of transfected proteins in swCHO cells was monitored by Western blotting.

This note sets out measurements from patent publication US7884067B2, “Peptides derived from cadherin and methods of use thereof” (Mount Sinai School of Medicine of New York University, priority 2001, dated 2011).

Consider `CNC(=O)[C@H](Cc1c[nH]c2ccccc12)NC(=O)[C@@H](CC(=O)NO)CC(C)C` [GM6001], for which the “production of the 38 kDa fragment (E-Cad/CTF1)” value in assay [1] (30 minutes preincubation with GM6001 (2.5 μM), then STS 6 hours) is reported as “inhibited”. Also, in assay [1] (antibody H108), the “secreted 95 kDa fragment (E-Cad/NTF1), effect of MMP inhibitor in STS-treated cells” value was “inhibited”. Moreover, in assay [2], the N-Cad/CTF1 entry was “decreased” and the “full length N-cadherin” value is recorded as “increased”.

As for `[Cl-].[K+]` [KCl], the “N-Cad/CTF2 production on stimulation” value in assay [3] is reported as “stimulated”.

Turning to `N[C@@H](CCC(=O)O)C(=O)O` [L-glutamate, L-Glutamate], the “N-Cad/CTF2 production on stimulation” value in assay [3] is “induced an increase in N-Cad/CTF2”.

Regarding `C[C@H](CCC(=O)O)C[C@H](C)C[C@H](C)C(=O)/C=C(\O)[C@H](C)C[C@H](C)C/C=C/[C@@H](C)[C@@H](O)[C@@H](C)[C@@H](O)C[C@@H]1CC[C@@](C)([C@H]2CC[C@@](C)([C@@H](C)O)O2)O1` [ionomycin], in assay [4] (cells expressing WT E-cadherin), the “soluble E-Cad/CTF2, β-catenin and α-catenin in cytosolic fractions” value is recorded as “significant increase”. Moreover, the “soluble β- or α-catenin in cytosolic fractions” value in assay [4] (cells expressing mutant E-cadherin GGG759-761AAA) is “no ionomycin-induced increase”. Besides, in assay [5], the cell-cell adhesion result is “disrupted cell-cell adhesion”; the “plasma membrane staining of PS1, E-cadherin, β-catenin and α-catenin epitopes” value is recorded as “decreased plasma membrane staining of all epitopes”. Also, in assay [3] (treatment of rat primary neuronal cultures with ionomycin), the N-Cad/CTF2 result is recorded as “increased N-Cad/CTF2”. Besides, in assay [6], the “cytoskeletal (Triton X-100-insoluble) fraction of full-length E-cadherin and E-Cad/CTF1” value was “time-dependent decrease”; the “cytoskeletal association (Triton X-100-insoluble fraction) of β-catenin and α-catenin” value is listed as “decreased”; the “soluble cytosolic E-Cad/CTF2” value is on record as “corresponding increase”; the “soluble cytosolic levels of β-catenin and α-catenin” value was “significant increase”.

In the case of “CTF-2: cDNA expressing the entire cytoplasmic sequence of E-cadherin”, in assay [7], the “secreted Aβ40” value is “significantly inhibited” and the “secreted Aβ42” value is “significantly inhibited”.

As for “D(−)-2-amino-5-phosphonovalerate [D-APV]”, the “K+-induced increase in N-Cad/CTF2” value in assay [3] (D-APV (100 (unit uncertain)) applied 15 minutes before stimulation with KCl) is given as “inhibited”. Further, the “L-glutamate-induced increase in N-Cad/CTF2” value in assay [3] (D-APV (100 (unit uncertain)) applied 15 minutes before stimulation with L-glutamate) is reported as “blocked”.

Z-DEVD-FMK: the “29 kDa fragment (E-Cad/CTT3)” value in assay [1] (30 minutes preincubation with Z-DEVD-FMK (50 μM), then STS 6 hours) is “inhibited”.
